Like-named read-outs stand apart in the source and are kept apart here.

This experiment has as its target T1, human mPGES-1 (Homo sapiens, UniProt O14684).
T1 construct: made in house; host or cells: COS-1 cells (transient transfection; microsomal fraction used as enzyme)
T1 sequence (O14684 1-152): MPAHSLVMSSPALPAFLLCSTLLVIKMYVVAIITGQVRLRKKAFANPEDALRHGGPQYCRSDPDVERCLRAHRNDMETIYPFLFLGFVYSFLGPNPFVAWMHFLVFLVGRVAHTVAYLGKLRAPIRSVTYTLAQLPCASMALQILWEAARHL
Nature of the experiment: Test for mPGES-1 inhibitory activity (microsomal enzyme, PGE2 EIA). Conditions: 4° C., 4 minutes, read-out: h mPGES1 IC50. The experiment is classed as biochemical. An outline of the steps: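 IC50 values were derived from EIA-quantified PGE2 after a 4 min, 4 °C reaction with PGH2 at 1 μM final, stopped with ferric chloride/citric acid. Beforehand, compound (2% DMSO final) sat 15 min at 4 °C with human mPGES-1 microsomes from transiently transfected COS-1 cells. Buffer was sodium phosphate pH 7.2 containing 2.5 mM reduced glutathione and 1 mM EDTA.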

Setting [1] is: microsomes of COS-1 cells transfected with human mPGES-1 cDNA, PGH2 1 μM, PGE2 by EIA.
Setting [2] is: microsomes from COS-1 cells transfected with human mPGES-1 cDNA, substrate PGH2 1 μM, PGE2 measured by EIA.

As for `O=c1cc(C(F)(F)F)nc(-c2c(C(F)(F)F)ccc(CNC(=O)[C@H]3C[C@@H](Oc4cccc(Cl)c4)C3)c2F)[nH]1` [Example 254, cis-3-(3-chlorophenoxy)-N-{2-fluoro-3-[6-oxo-4-(trifluoromethyl)-1,6-dihydropyrimidin-2-yl]-4-(trifluoromethyl)benzyl}cyclobutane-1-carboxamide], the IC50 under setting [1] worked out at 4.6 nM. For the compound `Cc1cccc2ccc(N3CCC(C(=O)NCc4ccc(C(F)(F)F)c(-c5nc(C(F)F)cc(=O)[nH]5)c4F)CC3)nc12` [Example 12, N-{3-[4-(difluoromethyl)-6-oxo-1,6-dihydropyrimidin-2-yl]-2-fluoro-4-(trifluoromethyl)benzyl}-1-(8-methylquinolin-2-yl)piperidine-4-carboxamide], the IC50 under setting [2] worked out at 2.1 nM. With `Cc1cc(=O)[nH]c(-c2c(C(F)(F)F)ccc(CNC(=O)[C@H]3C[C@H](OCc4cccc(F)c4F)C3)c2F)n1` [Example 189, trans-3-[(2,3-difluorobenzyl)oxy]-N-[2-fluoro-3-(4-methyl-6-oxo-1,6-dihydropyrimidin-2-yl)-4-(trifluoromethyl)benzyl]cyclobutane-1-carboxamide], the IC50 under setting [1] worked out at 13 nM. Take `Cc1cc(=O)[nH]c(-c2c(C(F)(F)F)ccc(CNC(=O)C3CCN(c4ccc(Cl)c(F)c4)CC3)c2F)n1` [Example 95, 1-(4-chloro-3-fluorophenyl)-N-[2-fluoro-3-(4-methyl-6-oxo-1,6-dihydropyrimidin-2-yl)-4-(trifluoromethyl)benzyl]piperidine-4-carboxamide]: the IC50 under setting [2] was < 1 nM.

`Cc1cc(=O)[nH]c(-c2c(C(F)(F)F)ccc(CNC(=O)[C@H]3C[C@H](OCc4ccc(Cl)cc4F)C3)c2F)n1` [Example 185, trans-3-[(4-chloro-2-fluorobenzyl)oxy]-N-[2-fluoro-3-(4-methyl-6-oxo-1,6-dihydropyrimidin-2-yl)-4-(trifluoromethyl)benzyl]cyclobutane-1-carboxamide]: the IC50 under setting [1] came to 1.2 nM.

Turning to `CCc1cc(=O)[nH]c(-c2c(C(F)(F)F)ccc(CNC(=O)[C@H]3C[C@H](OCc4ccc(Cl)cc4)C3)c2F)n1` [Example 197, trans-3-[(4-chlorobenzyl)oxy]-N-[3-(4-ethyl-6-oxo-1,6-dihydropyrimidin-2-yl)-2-fluoro-4-(trifluoromethyl)benzyl]cyclobutane-1-carboxamide], under setting [1], the half-maximal inhibitory concentration (IC50) was 3.7 nM. Regarding `Cc1cc(=O)[nH]c(-c2c(C(F)(F)F)ccc(CNC(=O)[C@H]3CC[C@H](OCc4cc(F)cc(F)c4)CC3)c2F)n1` [Example 120, trans-4-[(3,5-difluorobenzyl)oxy]-N-[2-fluoro-3-(4-methyl-6-oxo-1,6-dihydropyrimidin-2-yl)-4-(trifluoromethyl)benzyl]cyclohexane-1-carboxamide], the IC50 under setting [2] was 11 nM. The same measure, in the same setting: the result for `CCc1nc(-c2c(C(F)(F)F)ccc(CNC(=O)[C@H]3CC[C@H](OCc4ccc(Cl)cc4)CC3)c2F)[nH]c(=O)c1F` [Example 125, trans-4-[(4-chlorobenzyl)oxy]-N-[3-(4-ethyl-5-fluoro-6-oxo-1,6-dihydropyrimidin-2-yl)-2-fluoro-4-(trifluoromethyl)benzyl]cyclohexane-1-carboxamide] reads 19 nM. Take `CCc1cc(=O)[nH]c(-c2c(C(F)(F)F)ccc(CNC(=O)[C@H]3C[C@H](OCc4cccc(C(F)(F)F)c4)C3)c2F)n1` [Example 199, trans-N-[3-(4-ethyl-6-oxo-1,6-dihydropyrimidin-2-yl)-2-fluoro-4-(trifluoromethyl)benzyl]-3-{[3-(trifluoromethyl)benzyl]oxy}cyclobutane-1-carboxamide]: the IC50 under setting [1] turned out to be 1.1 nM. Same read-out and setting: the result for `CCc1cc(=O)[nH]c(-c2c(C(F)(F)F)ccc(CNC(=O)[C@H]3C[C@H](OCc4ccc(Cl)cc4F)C3)c2F)n1` [Example 202, trans-3-[(4-chloro-2-fluorobenzyl)oxy]-N-[3-(4-ethyl-6-oxo-1,6-dihydropyrimidin-2-yl)-2-fluoro-4-(trifluoromethyl)benzyl]cyclobutane-1-carboxamide] reads < 1 nM; that for `O=C(NCc1ccc(C(F)(F)F)c(-c2nc(C(F)(F)F)cc(=O)[nH]2)c1F)C1(c2ccc(Cl)cc2)CCCC1` [Example 281, 1-(4-chlorophenyl)-N-{2-fluoro-3-[6-oxo-4-(trifluoromethyl)-1,6-dihydropyrimidin-2-yl]-4-(trifluoromethyl)benzyl}cyclopentane-1-carboxamide], 45 nM. For `O=C(NCc1ccc(C(F)(F)F)c(-c2nc(C(F)(F)F)cc(=O)[nH]2)c1F)C1CCC(Oc2ccc(C(F)(F)F)cn2)CC1` (centres unmarked) [Example 248, N-{2-fluoro-3-[6-oxo-4-(trifluoromethyl)-1,6-dihydropyrimidin-2-yl]-4-(trifluoromethyl)benzyl}-4-{[5-(trifluoromethyl)pyridin-2-yl]oxy}cyclohexane-1-carboxamide], under setting [1], the concentration for half-maximal inhibition (IC50) was < 1 nM. On the same count and under the same terms, the result for `O=c1cc(C(F)(F)F)nc(-c2c(C(F)(F)F)ccc(CNC(=O)[C@H]3C[C@H](OCc4cccc(F)c4)C3)c2F)[nH]1` [Example 152, trans-N-{2-fluoro-3-[6-oxo-4-(trifluoromethyl)-1,6-dihydropyrimidin-2-yl]-4-(trifluoromethyl)benzyl}-3-[(3-fluorobenzyl)oxy]cyclobutane-1-carboxamide] reads < 1 nM; that for `Cc1cc(=O)[nH]c(-c2c(C(F)(F)F)ccc(CNC(=O)[C@H]3C[C@H](OCc4ccc(Cl)cc4)C3)c2F)n1` [Example 180, trans-3-[(4-chlorobenzyl)oxy]-N-[2-fluoro-3-(4-methyl-6-oxo-1,6-dihydropyrimidin-2-yl)-4-(trifluoromethyl)benzyl]cyclobutane-1-carboxamide], 1.7 nM.

Consider `CCc1cc(=O)[nH]c(-c2c(C(F)(F)F)ccc(CNC(=O)C3CCN(c4ccc(C(F)(F)F)cn4)CC3)c2F)n1` [Example 23, N-[3-(4-ethyl-6-oxo-1,6-dihydropyrimidin-2-yl)-2-fluoro-4-(trifluoromethyl)benzyl]-1-[5-(trifluoromethyl)pyridin-2-yl]piperidine-4-carboxamide], for which the half-inhibitory concentration (IC50) under setting [2] turned out to be 4.8 nM. Turning to `COc1cc(N2CCC(C(=O)NCc3ccc(C(F)(F)F)c(-c4nc(C(F)(F)F)cc(=O)[nH]4)c3F)CC2)ccc1Cl` [Example 83, 1-(4-chloro-3-methoxyphenyl)-N-{2-fluoro-3-[6-oxo-4-(trifluoromethyl)-1,6-dihydropyrimidin-2-yl]-4-(trifluoromethyl)benzyl}piperidine-4-carboxamide], the IC50 under setting [2] stood at 7.1 nM. Consider `CCc1cc(=O)[nH]c(-c2c(C(F)(F)F)ccc(CNC(=O)[C@H]3C[C@H](OCc4ccc(F)c(F)c4)C3)c2F)n1` [Example 203, trans-3-[(3,4-difluorobenzyl)oxy]-N-[3-(4-ethyl-6-oxo-1,6-dihydropyrimidin-2-yl)-2-fluoro-4-(trifluoromethyl)benzyl]cyclobutane-1-carboxamide], for which, under setting [1], the half-maximal inhibitory concentration (IC50) is < 1 nM. The same measure, in the same setting: the result for `O=c1cc(C(F)(F)F)nc(-c2c(C(F)(F)F)ccc(CNC(=O)[C@H]3C[C@H](OCc4ccc(F)c(Cl)c4)C3)c2F)[nH]1` [Example 157, trans-3-[(3-chloro-4-fluorobenzyl)oxy]-N-{2-fluoro-3-[6-oxo-4-(trifluoromethyl)-1,6-dihydropyrimidin-2-yl]-4-(trifluoromethyl)benzyl}cyclobutane-1-carboxamide] reads < 1 nM; that for `O=c1cc(C(F)(F)F)nc(-c2c(C(F)(F)F)ccc(CNC(=O)[C@H]3C[C@H](OCc4ccc(F)cc4F)C3)c2F)[nH]1` [Example 148, trans-3-[(2,4-difluorobenzyl)oxy]-N-{2-fluoro-3-[6-oxo-4-(trifluoromethyl)-1,6-dihydropyrimidin-2-yl]-4-(trifluoromethyl)benzyl}cyclobutane-1-carboxamide], < 1 nM. `O=c1cc(C(F)(F)F)nc(-c2c(C(F)(F)F)ccc(CNC(=O)[C@H]3C[C@@H](OCc4ccccc4Cl)C3)c2F)[nH]1` [Example 137, cis-3-[(2-chlorobenzyl)oxy]-N-{2-fluoro-3-[6-oxo-4-(trifluoromethyl)-1,6-dihydropyrimidin-2-yl]-4-(trifluoromethyl)benzyl}cyclobutane-1-carboxamide]: the IC50 under setting [2] worked out at 2.9 nM. For `CCc1cc(=O)[nH]c(-c2c(C(F)(F)F)ccc(CNC(=O)[C@H]3C[C@H](OCc4cc(F)cc(F)c4)C3)c2F)n1` [Example 204, trans-3-[(3,5-difluorobenzyl)oxy]-N-[3-(4-ethyl-6-oxo-1,6-dihydropyrimidin-2-yl)-2-fluoro-4-(trifluoromethyl)benzyl]cyclobutane-1-carboxamide], under setting [1], the IC50 was 13 nM. As to `CCc1cc(=O)[nH]c(-c2c(C(F)(F)F)ccc(CNC(=O)[C@H]3C[C@H](OCc4cc(F)cc(Cl)c4)C3)c2F)n1` [Example 211, trans-3-[(3-chloro-5-fluorobenzyl)oxy]-N-[3-(4-ethyl-6-oxo-1,6-dihydropyrimidin-2-yl)-2-fluoro-4-(trifluoromethyl)benzyl]cyclobutane-1-carboxamide], the half-inhibitory concentration (IC50) under setting [1] was found to be 9.3 nM. Same read-out and setting: the result for `Cc1nc(-c2c(C(F)(F)F)ccc(CNC(=O)[C@H]3C[C@H](OCc4ccccc4C(F)(F)F)C3)c2F)[nH]c(=O)c1F` [Example 215, trans-N-[2-fluoro-3-(5-fluoro-4-methyl-6-oxo-1,6-dihydropyrimidin-2-yl)-4-(trifluoromethyl)benzyl]-3-{[2-(trifluoromethyl)benzyl]oxy}cyclobutane-1-carboxamide] reads 6.9 nM.
